Reference: article PMC12310023 (PLOS Neglected Tropical Diseases, 2025)
Read-outs that look alike come from different tables or passages of the source.

Experiments:
NLuc C. parvum (Calibr) = experiment: Calibr panel, UA Nanoluc C. parvum count; type: cell-based; conditions: Cryptosporidium parvum; for EC50: read-out: UA Nanoluc C. parvum Count EC50; for EC90: read-out: UA Nanoluc C. parvum Count EC90
[1] = test system: C. parvum Bunch Grass Farms isolate; experiment: Calibr high-content imaging Cryptosporidium panel; type: cell-based, Cryptosporidium parvum; conditions: Cryptosporidium parvum
[2] = HCT-8 host cell count (Calibr); conditions: human
[3] = test system: C. parvum Zambriski Laboratory isolate; experiment: Calibr high-content imaging Cryptosporidium panel; type: cell-based, Cryptosporidium parvum; conditions: Cryptosporidium parvum; for EC50: read-out: Wild C. parvum Spot Count EC50; for EC90: read-out: Wild C. parvum Spot Count EC90
C. hominis TU502 isolate = experiment: Calibr high-content imaging Cryptosporidium panel; type: cell-based, Cryptosporidium hominis; conditions: Cryptosporidium hominis
72H HEK293T Cytotoxicity = type: cell-based; conditions: human, HEK293T cells
[4] = test system: C. parvum U AZ Laboratory isolate; experiment: microbe, parasite or virus in culture; type: cell-based, Cryptosporidium parvum; conditions: Cryptosporidium parvum; for EC50: Calibr Crypto Panel 2, 2018-06-18, read-out: Sterling Lab C. parvum Spot Count EC50; for EC90: Calibr Crypto Panel 2, read-out: Sterling Lab C. parvum Spot Count EC90
PPARУ = target: T1, PPARУ (Homo sapiens, UniProt P37231); experiment: Cerep cellular and nuclear receptor functional assay; type: cell-based; conditions: read-out: IC50, antagonist effect
T1 construct: Cerep (Eurofins, France)
T1 sequence (P37231 1-505): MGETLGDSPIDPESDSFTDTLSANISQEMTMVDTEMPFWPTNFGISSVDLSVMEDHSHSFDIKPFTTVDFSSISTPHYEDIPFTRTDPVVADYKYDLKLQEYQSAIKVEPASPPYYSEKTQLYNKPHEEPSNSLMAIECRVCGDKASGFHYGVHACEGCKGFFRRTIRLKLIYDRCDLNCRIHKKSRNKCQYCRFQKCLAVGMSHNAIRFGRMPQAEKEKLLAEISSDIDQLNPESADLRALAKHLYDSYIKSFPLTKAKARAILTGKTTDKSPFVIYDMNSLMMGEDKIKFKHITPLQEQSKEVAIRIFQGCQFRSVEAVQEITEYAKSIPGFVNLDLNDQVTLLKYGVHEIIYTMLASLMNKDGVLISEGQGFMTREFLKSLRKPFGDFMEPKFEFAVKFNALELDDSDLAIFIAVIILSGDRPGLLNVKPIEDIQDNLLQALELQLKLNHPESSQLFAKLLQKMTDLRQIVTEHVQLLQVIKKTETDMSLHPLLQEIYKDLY

5-HT2B = target: T2, 5-HT2B (Homo sapiens, UniProt P41595); experiment: as above; type: cell-based; conditions: read-out: IC50, antagonist effect
T2 construct: Cerep (Eurofins, France)
T2 sequence (P41595 whole entry): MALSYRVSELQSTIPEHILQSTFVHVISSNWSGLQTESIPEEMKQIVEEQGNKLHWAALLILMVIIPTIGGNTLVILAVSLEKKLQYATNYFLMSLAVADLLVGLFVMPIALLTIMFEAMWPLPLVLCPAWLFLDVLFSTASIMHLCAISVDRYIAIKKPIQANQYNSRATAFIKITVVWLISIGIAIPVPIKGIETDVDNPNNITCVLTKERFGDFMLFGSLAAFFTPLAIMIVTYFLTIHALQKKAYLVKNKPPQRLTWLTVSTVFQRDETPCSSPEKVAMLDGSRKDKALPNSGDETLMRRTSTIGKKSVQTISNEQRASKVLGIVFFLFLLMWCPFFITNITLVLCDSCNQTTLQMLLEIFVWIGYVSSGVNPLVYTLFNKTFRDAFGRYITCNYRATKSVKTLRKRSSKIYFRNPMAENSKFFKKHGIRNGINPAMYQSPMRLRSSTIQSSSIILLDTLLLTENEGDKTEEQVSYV

[5] = read-out: Bunch Grass Farm C. parvum Count EC50, Crypto Panel 3 Replicate 1
[6] = read-out: Bunch Grass Farm C. parvum Count EC50, Crypto Panel 3 Replicate 2
[7] = read-out: Bunch Grass Farm C. parvum Count EC90, Replicate 1
[8] = read-out: Bunch Grass Farm C. parvum Count EC90, Replicate 2
[9] = read-out: Bunch Grass Farm C. parvum Spot Count EC50, Calibr Crypto Panel 2
[10] = read-out: Bunch Grass Farm C. parvum Spot Count EC90, Calibr Crypto Panel 2
[11] = CC50, HCT-8 cells infected with BGF Cp, Replicate 1
[12] = CC50, HCT-8 cells infected with BGF Cp, Replicate 2
[13] = CC50, HCT-8 cells infected with Ch, Replicate 1
[14] = CC50, HCT-8 cells infected with Ch, Replicate 2
[15] = CC50, HCT-8 cells infected with UA Nluc Cp, Replicate 1
[16] = CC50, HCT-8 cells infected with UA Nluc Cp, Replicate 2
[17] = HCT-8 Cell Count CC50, host cells infected with Sterling oocysts
[18] = read-out: C. hominis Spot Count EC50, Calibr Crypto Panel 2, 2018-07-02
[19] = read-out: C. hominis Spot Count EC90, Calibr Crypto Panel 2
[20] = read-out: TU502 C. hominis Count EC50, Replicate 1
[21] = read-out: TU502 C. hominis Count EC50, Replicate 2
[22] = read-out: TU502 C. hominis Count EC90, Replicate 1
[23] = read-out: TU502 C. hominis Count EC90, Replicate 2
[24] = Crypto Panel 3 Replicate 1, read-out: Bunch Grass Farm C. parvum Count EC50
[25] = Crypto Panel 3 Replicate 2, read-out: Bunch Grass Farm C. parvum Count EC50
[26] = Replicate 1, read-out: Bunch Grass Farm C. parvum Count EC90
[27] = Replicate 2, read-out: Bunch Grass Farm C. parvum Count EC90
[28] = Replicate 1, read-out: TU502 C. hominis Count EC50
[29] = Replicate 1, read-out: TU502 C. hominis Count EC90
[30] = Replicate 2, read-out: TU502 C. hominis Count EC50
[31] = Replicate 2, read-out: TU502 C. hominis Count EC90

Row | SMILES | EC50 (NLuc C. parvum (Calibr); Replicate 1) [nM] | EC90 (NLuc C. parvum (Calibr); Replicate 1) [nM] | EC50 (NLuc C. parvum (Calibr); Replicate 2) [nM] | EC90 (NLuc C. parvum (Calibr); Replicate 2) [nM] | EC50 [1, 5] [nM] | EC50 [1, 6] [nM] | EC90 [1, 7] [nM] | EC90 [1, 8] [nM] | EC50 [1, 9] [nM] | EC90 [1, 10] [nM] | CC50 [2, 11] [nM] | CC50 [2, 12] [nM] | CC50 [2, 13] [nM] | CC50 [2, 14] [nM] | CC50 [2, 15] [nM] | CC50 [2, 16] [nM] | CC50 [2, 17] [nM] | CC50 at 72 h (72H HEK293T Cytotoxicity) [nM] | EC50 [4] [nM] | EC90 [4] [nM] | further results
1 | O=c1[nH]c(=O)n([C@H]2C[C@H](O)[C@@H](CO)O2)cc1F [5-fluoro-2'-deoxyuridine] | 43.1 | 158 | 33.1 | 117 | 39.7 | 29 | 68.8 | 86 | 3.1 | 11.7 | 192 | 80.3 | 71.8 | 9.05 | 196 | 43 | 79 | 7.23 | 3.67 | 9.97 | EC50 [3]: 5.29 nM; EC90 [3]: 80.4 nM; EC50 (C. hominis TU502 isolate; [18]): 33.5 nM; EC90 (C. hominis TU502 isolate; [19]): 679 nM; EC50 (C. hominis TU502 isolate; [20]): 51.1 nM; EC50 (C. hominis TU502 isolate; [21]): 29.2 nM; EC90 (C. hominis TU502 isolate; [22]): 196 nM; EC90 (C. hominis TU502 isolate; [23]): 222 nM
2 | O=C(Nc1ccccc1)c1cc([N+](=O)[O-])ccc1Cl [GW 9662, reference compound] |  |  |  |  |  |  |  |  |  |  |  |  |  |  |  |  |  |  |  |  | IC50 (PPARУ): 34 nM
3 | COc1ccc(C[C@H](N)C(=O)N[C@H]2[C@@H](O)[C@H](n3cnc4c(N(C)C)ncnc43)O[C@@H]2CO)cc1 [Puromycin] | 337 | 1020 | 233 | 1320 | 403 | 274 | 1140 | 847 | 177 | 398 | 3090 | 2810 | 2660 | 2810 | 2970 | 2370 | 3100 | 319 | 165 | 406 | EC50 [3]: 274 nM; EC90 [3]: 1920 nM; EC50 (C. hominis TU502 isolate; [18]): 1840 nM; EC90 (C. hominis TU502 isolate; [19]): 3570 nM; EC50 (C. hominis TU502 isolate; [20]): 730 nM; EC50 (C. hominis TU502 isolate; [21]): 504 nM; EC90 (C. hominis TU502 isolate; [22]): 1900 nM; EC90 (C. hominis TU502 isolate; [23]): 1500 nM
4 | Cn1ccc2cc3c(cc21)CCN3C(=O)Nc1cccnc1 [SB 206553, reference compound] |  |  |  |  |  |  |  |  |  |  |  |  |  |  |  |  |  |  |  |  | IC50 (5-HT2B): 21 nM
5 | CC(C)/N=c1\cc2n(-c3ccc(Cl)cc3)c3ccccc3nc-2cc1Nc1ccc(Cl)cc1 [Clofazimine] | 23.6 | 392 | 67 | 1370 |  |  |  |  |  |  | > 25000 | > 25000 | > 25000 | > 25000 | > 25000 | > 25000 |  |  |  |  | EC50 [1, 24]: 119 nM; EC50 [1, 25]: 678 nM; EC90 [1, 26]: 2710 nM; EC90 [1, 27]: 1170 nM; EC50 (C. hominis TU502 isolate; [28]): 517 nM; EC90 (C. hominis TU502 isolate; [29]): 1190 nM; EC50 (C. hominis TU502 isolate; [30]): 707 nM; EC90 (C. hominis TU502 isolate; [31]): 1520 nM
6 | CC(=O)Oc1ccccc1C(=O)Nc1ncc([N+](=O)[O-])s1 [Nitazoxanide] | > 30000 | > 30000 | 4760 | 25000 |  |  |  |  |  |  | > 30000 | > 30000 | > 30000 | > 30000 | > 30000 | > 30000 | 19900 | 40300 | 3940 | 20800 | EC50 [1, 24]: 11300 nM; EC50 [1, 25]: 6050 nM; EC90 [1, 26]: 19600 nM; EC90 [1, 27]: 12000 nM; EC50 ([1]; Calibr Crypto Panel 2, read-out: Bunch Grass Farm C. parvum Spot Count EC50): 6990 nM; EC90 ([1]; Calibr Crypto Panel 2, read-out: Bunch Grass Farm C. parvum Spot Count EC90): 16800 nM; EC50 ([3]; Calibr Crypto Panel 2): 9040 nM; EC90 ([3]; Calibr Crypto Panel 2): 15700 nM; EC50 (C. hominis TU502 isolate; Calibr Crypto Panel 2, 2018-07-02, read-out: C. hominis Spot Count EC50): 5820 nM; EC90 (C. hominis TU502 isolate; Calibr Crypto Panel 2, read-out: C. hominis Spot Count EC90): 278000 nM; EC50 (C. hominis TU502 isolate; [28]): 8220 nM; EC90 (C. hominis TU502 isolate; [29]): 14200 nM; EC50 (C. hominis TU502 isolate; [30]): 6030 nM; EC90 (C. hominis TU502 isolate; [31]): 12300 nM
